{"source": "ChEMBL document CHEMBL4842322", "about": "“A naphthalimide-polyamine conjugate preferentially accumulates in hepatic carcinoma metastases as a lysosome-targeted antimetastatic agent” (Eur J Med Chem, 2021)", "key": {"[1]": {"system": "Huh-7", "assay": "Cytotoxicity against human Huh-7 cells assessed as reduction in cell viability at 5 to 15 uM incubated for 24 hrs in presence of polyamine transporter inhibitor, Spd by MTT assay", "assay_type": "functional, cell-based", "details": "dose 5-15 µM"}, "[2]": {"system": "HepG2", "assay": "Cytotoxicity against human HepG2 cells assessed as inhibition of cell growth incubated for 48 hrs by MTT assay", "assay_type": "functional, cell-based", "details": "HepG2, 48 h"}, "[3]": {"system": "Huh-7", "assay": "Cytotoxicity against human Huh-7 cells assessed as inhibition of cell growth incubated for 48 hrs by MTT assay", "assay_type": "functional, cell-based", "details": "Huh-7, 48 h"}, "[4]": {"system": "MDA-MB-231", "assay": "Cytotoxicity against human MDA-MB-231 cells assessed as inhibition of cell growth incubated for 48 hrs by MTT assay", "assay_type": "functional, cell-based", "details": "MDA-MB-231, 48 h"}, "[5]": {"system": "MCF7", "assay": "Cytotoxicity against human MCF7 cells assessed as inhibition of cell growth incubated for 48 hrs by MTT assay", "assay_type": "functional, cell-based", "details": "MCF7, 48 h"}, "[6]": {"system": "A549", "assay": "Cytotoxicity against human A549 cells assessed as inhibition of cell growth incubated for 48 hrs by MTT assay", "assay_type": "functional, cell-based", "details": "A549, 48 h"}, "[7]": {"system": "A549", "assay": "Cytotoxicity against cisplatin-resistant human A549 cells assessed as inhibition of cell growth incubated for 48 hrs by MTT assay", "assay_type": "functional, cell-based", "details": "A549, 48 h"}, "[8]": {"assay": "Resistance factor, ratio of IC50 for cisplatin-resistant human A549 cells to IC50 for human A549 cells", "assay_type": "functional"}, "[9]": {"system": "HepG2", "assay": "Cytotoxicity against human HepG2 cells assessed as inhibitory of cell growth measured after 24 hrs by MTT assay", "assay_type": "functional, cell-based", "details": "HepG2, 24 h"}, "[10]": {"system": "Huh-7", "assay": "Cytotoxicity against human Huh-7 cells assessed as inhibition of cell growth measured after 24 hrs by MTT assay", "assay_type": "functional, cell-based", "details": "Huh-7, 24 h"}, "[11]": {"system": "L02", "assay": "Cytotoxicity against human HL7702 cells assessed as inhibition of cell growth measured after 24 hrs by MTT assay", "assay_type": "cell-based", "details": "L02, 24 h"}, "[12]": {"assay": "Selectivity index, ratio of IC50 for human HL7702 cells to IC50 for human HepG2 cells", "assay_type": "toxicity", "details": "HL7702 cells and HepG2 cells, read-out: Ratio IC50"}, "[13]": {"assay": "Selectivity index, ratio of IC50 for human HL7702 cells to IC50 for human Huh-7 cells", "assay_type": "toxicity", "details": "HL7702 cells and Huh-7 cells, read-out: Ratio IC50"}, "[14]": {"assay": "Antitumor activity against human HCC cells xenografted in BALB/c mouse assessed as inhibition of tumor weight at 1 mg/kg, iv administered once daily for 7 days", "assay_type": "functional", "details": "168 h, time 7 day"}, "[15]": {"assay": "Antitumor activity against human HCC cells xenografted in BALB/c mouse assessed as inhibition of tumor weight at 3 mg/kg, iv administered once daily for 7 days", "assay_type": "functional", "details": "168 h, time 7 day"}, "[16]": {"assay": "Antitumor activity against human HCC cells xenografted in BALB/c mouse assessed as inhibition of tumor weight at 5 mg/kg, iv administered once daily for 7 days", "assay_type": "functional", "details": "168 h, time 7 day"}, "[17]": {"assay": "Antimetastatic activity against human HCC cells xenografted in BALB/c mouse assessed as reduction lung metastatic nodules at 1 mg/kg, iv administered once every 2 days for 14 days", "assay_type": "functional", "details": "336 h, time 14 day"}, "[18]": {"assay": "Antimetastatic activity against human HCC cells xenografted in BALB/c mouse assessed as reduction lung metastatic nodules at 3 mg/kg, iv administered once every 2 days for 14 days", "assay_type": "functional", "details": "336 h, time 14 day"}, "[19]": {"assay": "Antimetastatic activity against human HCC cells xenografted in BALB/c mouse assessed as reduction lung metastatic nodules at 5 mg/kg, iv administered once every 2 days for 14 days", "assay_type": "functional", "details": "336 h, time 14 day"}, "[20]": {"system": "HepG2", "assay": "Cytotoxicity against human HepG2 cells assessed as reduction in cell viability at 5 to 15 uM incubated for 24 hrs in presence of polyamine transporter inhibitor, Spd by MTT assay", "assay_type": "functional, cell-based", "details": "dose 5-15 µM"}, "[21]": {"system": "HepG2", "assay": "Inhibition of tumor metastasis in human HepG2 cells assessed as downregulation of HMGB1 gene expression level measured after 24 hrs by qRT-PCR analysis", "assay_type": "functional, cell-based", "details": "dose 5-15 µM"}, "[22]": {"system": "HepG2", "assay": "Inhibition of tumor metastasis in human HepG2 cells assessed as upregulation of p62 gene expression level at 5 to 15 uM measured after 24 hrs by qRT-PCR analysis", "assay_type": "functional, cell-based", "details": "dose 5-15 µM"}, "[23]": {"system": "HepG2", "assay": "Inhibition of tumor metastasis in human HepG2 cells assessed as downregulation of LC3-II gene expression level at 5 to 15 uM measured after 24 hrs by qRT-PCR analysis", "assay_type": "functional, cell-based", "details": "dose 5-15 µM"}, "[24]": {"system": "HepG2", "assay": "Inhibition of tumor metastasis in human HepG2 cells assessed as upregulation of LC3-I gene expression level at 5 to 15 uM measured after 24 hrs by qRT-PCR analysis", "assay_type": "functional, cell-based", "details": "dose 5-15 µM"}, "[25]": {"system": "A549", "assay": "Inhibition of tumor metastasis in cisplatin-resistant human A549 cells assessed as upregulation of p53 expression level at 5 to 15 uM measured after 24 hrs by western blot analysis", "assay_type": "functional, cell-based", "details": "dose 5-15 µM"}, "[26]": {"system": "HepG2", "assay": "Inhibition of tumor metastasis in human HepG2 cells assessed as upregulation of SSAT gene expression level at 5 to 15 uM measured after 24 hrs by qRT-PCR analysis", "assay_type": "functional, cell-based", "details": "dose 5-15 µM"}, "[27]": {"assay": "Upregulation of PAO expression in human HepG2 cells at 10 uM measured after 24 hrs relative to control", "assay_type": "functional"}, "[28]": {"assay": "Upregulation of PAO expression in human Huh-7 cells at 10 uM measured after 24 hrs relative to control", "assay_type": "functional"}, "[29]": {"system": "HepG2", "assay": "Downregulation of Putrescine contents in human HepG2 cells measured after 24 hrs by HPLC analysis", "assay_type": "functional, cell-based"}, "[30]": {"system": "HepG2", "assay": "Downregulation of Spermidine contents in human HepG2 cells measured after 24 hrs by HPLC analysis", "assay_type": "functional, cell-based"}, "[31]": {"system": "HepG2", "assay": "Downregulation of Spermine contents in human HepG2 cells measured after 24 hrs by HPLC analysis", "assay_type": "functional, cell-based"}, "[32]": {"system": "Huh-7", "assay": "Downregulation of Putrescine contents in human Huh-7 cells measured after 24 hrs by HPLC analysis", "assay_type": "functional, cell-based"}}, "note": "Active and inactive are the calls of the source. The calls are words filed in the database; no cut-off is given here."}
{"compound": "NCCCCNCCCCNCCCCN1C(=O)c2cccc3cc(NC(=O)CN)cc(c23)C1=O", "values": [{"measurement": "Activity", "setting": "[1]", "value": "inactive"}, {"measurement": "IC50", "setting": "[2]", "value": 1.32, "unit": "µM"}, {"measurement": "IC50", "setting": "[3]", "value": 0.98, "unit": "µM"}, {"measurement": "IC50", "setting": "[4]", "value": 15.4, "unit": "µM"}, {"measurement": "IC50", "setting": "[5]", "value": 16.2, "unit": "µM"}, {"measurement": "IC50", "setting": "[6]", "value": 20.3, "unit": "µM"}, {"measurement": "IC50", "setting": "[7]", "value": 15.5, "unit": "µM"}, {"measurement": "Ratio IC50", "setting": "[8]", "value": 0.76}, {"measurement": "IC50", "setting": "[9]", "value": 1.32, "unit": "µM"}, {"measurement": "IC50", "setting": "[10]", "value": 0.98, "unit": "µM"}, {"measurement": "IC50", "setting": "[11]", "value": 6.3, "unit": "µM"}, {"measurement": "selectivity ratio", "setting": "[12]", "value": 4.77}, {"measurement": "selectivity ratio", "setting": "[13]", "value": 6.43}, {"measurement": "inhibition in vivo at 1 mg/kg", "setting": "[14]", "value": 58.5, "unit": "%"}, {"measurement": "inhibition in vivo at 3 mg/kg", "setting": "[15]", "value": 70.1, "unit": "%"}, {"measurement": "inhibition in vivo at 5 mg/kg", "setting": "[16]", "value": 76, "unit": "%"}, {"measurement": "inhibition in vivo at 1 mg/kg", "setting": "[17]", "value": 58.5, "unit": "%"}, {"measurement": "inhibition in vivo at 3 mg/kg", "setting": "[18]", "value": 65.5, "unit": "%"}, {"measurement": "inhibition in vivo at 5 mg/kg", "setting": "[19]", "value": 75, "unit": "%"}, {"measurement": "Activity", "setting": "[20]", "value": "inactive"}, {"measurement": "inhibition", "setting": "[21]", "value": "Dose-Dependent Effect"}, {"measurement": "inhibition", "setting": "[22]", "value": "Active"}, {"measurement": "inhibition", "setting": "[23]", "value": "Active"}, {"measurement": "inhibition", "setting": "[24]", "value": "Active"}, {"measurement": "inhibition", "setting": "[25]", "value": "Active"}, {"measurement": "inhibition", "setting": "[26]", "value": "Active"}, {"measurement": "fold change (FC)", "setting": "[27]", "value": 1.5}, {"measurement": "fold change (FC)", "setting": "[28]", "value": 1.5}, {"measurement": "inhibition", "setting": "[29]", "value": "Active"}, {"measurement": "inhibition", "setting": "[30]", "value": "Active"}, {"measurement": "inhibition", "setting": "[31]", "value": "Active"}, {"measurement": "inhibition", "setting": "[32]", "value": "Active"}]}
